Measurements from patent publication US8367681B2, “Pyrazolopyrimidines and related heterocycles as kinase inhibitors” (Cylene Pharmaceuticals, Inc., priority 2009, dated 2013).

Legend:
[1] = biological target: recombinant PIM-1 (Homo sapiens, UniProt P11309); assay: PIM-1 kinase assay, 33P-ATP filter plate; format: biochemical; details: recombinant PIM-1, 15 uM ATP; read-out: PIM1: IC50
Procedure: The following procedure was used to assay the PIM-1 kinase activity of compounds of the invention. Other methods for assaying PIM-1 and other PIM kinases, as well as methods to assay for activity against the various kinases in FIG. 1, are known in the art.
In a final reaction volume of 50 ul, recombinant PIM-1 (1 ng) was incubated with 12 mM MOPS pH 7.0, 0.4 mM EDTA, glycerol 1%, brij 35 0.002%, 2- mercaptoethanol 0.02%, BSA 0.2 mg/ml, 100 uM KKRNRTLTK SEQ ID NO.: 5, 10 mM MgAcetate, 15 uM ATP, [γ-^33P-ATP] (specific activity approx. […]), DMSO 4% and test inhibitor compound at the required concentration. The reaction was initiated by the addition of the Magnesium ATP mixture. After 40 min incubation at 23° C., the reactions were quenched by the addition of 100 ul 0.75% Phosphoric acid, and the labeled peptide collected by filtration through a phosphocellulose filter plate. The plate was washed 4 times with 0.075% phosphoric acid (100 ul per well) and then, after the addition of scintillation fluid (20 ul per well), the counts were measured by a scintillation counter.

[2] = biological target: T1, recombinant human CK2 (Homo sapiens, UniProt P68400); assay: CK2 assay, cell-free, 33P-ATP filter plate; format: biochemical
T1 construct: purchased Upstate
T1 sequence (P68400 whole entry): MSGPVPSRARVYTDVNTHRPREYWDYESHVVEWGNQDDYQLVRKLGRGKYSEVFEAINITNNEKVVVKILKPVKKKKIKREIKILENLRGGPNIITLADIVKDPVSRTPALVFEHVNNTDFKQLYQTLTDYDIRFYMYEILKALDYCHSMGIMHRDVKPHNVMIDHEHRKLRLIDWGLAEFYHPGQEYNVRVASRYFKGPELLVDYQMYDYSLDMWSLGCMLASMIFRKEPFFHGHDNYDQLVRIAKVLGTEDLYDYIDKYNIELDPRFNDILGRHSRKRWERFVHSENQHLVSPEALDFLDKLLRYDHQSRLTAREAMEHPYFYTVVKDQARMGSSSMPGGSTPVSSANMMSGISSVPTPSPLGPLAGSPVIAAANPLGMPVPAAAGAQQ
T1 sequence (P67870 whole entry partner): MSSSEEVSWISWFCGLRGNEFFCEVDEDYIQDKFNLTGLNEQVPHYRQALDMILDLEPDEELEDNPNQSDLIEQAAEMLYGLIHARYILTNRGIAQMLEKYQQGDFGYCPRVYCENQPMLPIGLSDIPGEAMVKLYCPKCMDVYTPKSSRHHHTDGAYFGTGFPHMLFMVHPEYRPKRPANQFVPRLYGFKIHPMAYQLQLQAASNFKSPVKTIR
Procedure: Modulatory activity of compounds described herein was assessed in vitro in cell-free CK2 assays by the following method.
Test compounds in aqueous solution were added at a volume of 10 microliters, to a reaction mixture comprising 10 microliters Assay Dilution Buffer (ADB; 20 mM MOPS, pH 7.2, 25 mM beta-glycerolphosphate, 5 mM EGTA, 1 mM sodium orthovanadate and 1 mM dithiothreitol), 10 microliters of substrate peptide (RRRDDDSDDD SEQ ID NO.: 4, dissolved in ADB at a concentration of 1 mM), 10 microliters of recombinant human CK2 (25 ng dissolved in ADB; Upstate). Reactions were initiated by the addition of 10 microliters of ATP Solution (90% 75 mM MgCl2, 75 micromolar ATP dissolved in ADB; 10% [γ-^33P]ATP (stock 1 mCi/100 μl; 3000 Ci/mmol (Perkin Elmer) and maintained for 10 minutes at 30 degrees C. The reactions were quenched with 100 microliters of 0.75% phosphoric acid, then transferred to and filtered through a phosphocellulose filter plate (Millipore). After washing each well 5 times with 0.75% phosphoric acid, the plate was dried under vacuum for 5 min and, following the addition of 15 ul of scintillation fluid to each well, the residual radioactivity was measured using a Wallac luminescence counter.

[3] = biological target: recombinant human PIM2 (Homo sapiens, UniProt Q9P1W9); assay: PIM-2 kinase assay, 33P-ATP filter plate; format: biochemical; details: PIM2, 5 μM ATP; read-out: PIM2 IC50 (printed in the PIM1: IC50 (μM) column)
Chain of recombinant human PIM2 (Q9P1W9 whole entry): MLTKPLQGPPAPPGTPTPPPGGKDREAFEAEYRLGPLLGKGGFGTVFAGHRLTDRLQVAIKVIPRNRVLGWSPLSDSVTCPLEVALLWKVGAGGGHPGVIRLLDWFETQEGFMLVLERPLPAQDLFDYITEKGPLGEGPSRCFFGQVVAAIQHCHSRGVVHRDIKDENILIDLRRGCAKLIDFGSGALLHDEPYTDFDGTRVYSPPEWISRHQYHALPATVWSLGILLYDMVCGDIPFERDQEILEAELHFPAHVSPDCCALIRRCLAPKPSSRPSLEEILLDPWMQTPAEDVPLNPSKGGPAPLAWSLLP
Procedure: Test compounds dissolved and diluted in DMSO (2 μl) were added to a reaction mixture comprising 10 μl of 5× Reaction Buffer (40 mM MOPS pH 7.0, 5 mM EDTA), 10 μl of recombinant human PIM2 solution (4 ng PIM-2 dissolved in dilution buffer (20 mM MOPS pH 7.0; EDTA 1 mM; 5% Glycerol; 0.01% Brij 35; […]; […] 2-mercaptoethanol; 1 mg/ml BSA)) and 8 ul of water. Reactions were initiated by the addition of 10 ul of ATP Solution ([…] (15 mM MgCl2; 75 uM ATP) 1% ([γ-33P]ATP: Stock 1 mCi/100 μl; 3000 Ci/mmol (Perkin Elmer)) and 10 ul of substrate peptide solution (RSRSSYPAGT SEQ ID NO.: 6, dissolved in water at a concentration of 1 mM), Reactions were maintained for 10 min at 30° C. The reactions were quenched with 100 ul of 0.75% Phosphoric acid, then transferred to and filtered through a Phosphocellulose filter plate (Millipore, MSPH-N6B-50). After washing each well 4 times with 0.75% Phosphoric acid, scintillation fluid (20 uL) was added to each well and the residual radioactivity was measured using a Wallac luminescence counter.

[4] = tested on: PC-3 human prostatic cancer cells; assay: Alamar Blue (AB) cell proliferation assay, PC3; format: cell-based; details: PC-3, 96 h, four days with compound
Procedure: (§1) A representative cell-proliferation assay protocol using Alamar Blue dye (stored at 4° C., use 20 ul per well) is described hereafter.
(§2) 96-well Plate Setup and Compound Treatment • a. Split and trypsinize cells. • b. Count cells using hemocytometer. • c. Plate 4,000-5,000 cells per well in 100 μl of medium and seed into a 96-well plate according to the following plate layout. Add cell culture medium only to wells B10 to B12. Wells B1 to B9 have cells but no compound added.
(§3) • d. Add 100 μl of 2× drug dilution to each well in a concentration shown in the plate layout above. At the same time, add 100 μl of media into the control wells (wells B10 to B12). Total volume is 200 μl/well. • e. Incubate four (4) days at 37° C., 5% CO2 in a humidified incubator. • f. Add 20 μl Alamar Blue reagent to each well. • g. Incubate for four (4) hours at 37° C., 5% CO2 in a humidified incubator. • h. Record fluorescence at an excitation wavelength of 544 nm and emission wavelength of 590 nm using a microplate reader.
(§4) In the assays, cells are cultured with a test compound for approximately four days, the dye is then added to the cells and fluorescence of […] dye is detected after approximately four hours. Different types of cells can be utilized in the assays (e.g., HCT-116 human colorectal carcinoma cells, PC-3 human prostatic cancer cells, MDA-MB231 human breast cancer cells, K-562 human chronic myelogenous leukemia (CML) cells, MiaPaca human pancreatic carcinoma cells, MV-4 human acute myeloid leukemia cells, and BxPC3 human pancreatic adenocarcinoma cells).

[5] = tested on: MDA-MB231 human breast cancer cells; assay: Alamar Blue (AB) cell proliferation assay, MDAMB231; format: cell-based; details: MDA-MB-231, 96 h, four days with compound
Procedure: as §1, §2, §3, §4

[6] = tested on: P21_BxPC3; assay: P21_BxPC3 cellular assay; format: cell-based; details: Homo sapiens, BXPC-3; BxPC3 cells
[7] = tested on: K-562 human chronic myelogenous leukemia (CML) cells; assay: Alamar Blue (AB) cell proliferation assay, K-562; format: cell-based; details: K562, 96 h, K-562 cells, four days with compound
Procedure: as §1, §2, §3, §4

[8] = tested on: P21_MDAMB231; assay: P21_MDAMB231 cellular assay; format: cell-based; details: Homo sapiens, MDA-MB-231; MDAMB231 cells
[9] = tested on: MiaPaca human pancreatic carcinoma cells; assay: Alamar Blue (AB) cell proliferation assay, MiaPaCa; format: cell-based; details: MIA PaCa-2, 96 h, four days with compound
Procedure: as §1, §2, §3, §4

[10] = tested on: MV-4 human acute myeloid leukemia cells; assay: Alamar Blue (AB) cell proliferation assay, MV-4-11; format: cell-based; details: MV4-11, 96 h, MV-4-11 cells, four days with compound
Procedure: as §1, §2, §3, §4

Chain of recombinant PIM-1 (P11309 whole entry): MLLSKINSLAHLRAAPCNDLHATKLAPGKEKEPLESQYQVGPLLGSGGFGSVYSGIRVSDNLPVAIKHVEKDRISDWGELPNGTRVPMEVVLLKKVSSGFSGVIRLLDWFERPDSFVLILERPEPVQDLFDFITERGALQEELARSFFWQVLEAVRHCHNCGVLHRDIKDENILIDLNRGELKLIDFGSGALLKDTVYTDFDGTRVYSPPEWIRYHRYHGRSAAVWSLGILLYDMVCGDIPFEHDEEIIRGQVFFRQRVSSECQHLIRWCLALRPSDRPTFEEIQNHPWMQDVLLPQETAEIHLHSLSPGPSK

| SMILES | IC50 [1] | IC50 [2] | IC50 [4] | also measured |
| --- | --- | --- | --- | --- |
| O=C1NC(=O)/C(=C/c2cnn3ccc(NCCF)nc23)N1 | 2380 nM | 2150 nM |  |  |
| CN1C(=O)NC(=O)/C1=C/c1cnn2ccc(Nc3cccc(Cl)c3)nc12 | 239 nM | 375 nM |  |  |
| CN1CCCN(c2ccn3ncc(/C=C4\NC(=O)NC4=O)c3n2)CC1 | 3530 nM | 1970 nM |  |  |
| CN1CCN(c2cccc(Nc3ccn4ncc(/C=C5\NC(=O)NC5=O)c4n3)c2)CC1 | 518 nM | 247 nM |  |  |
| O=C1NC(=O)/C(=C/c2cnn3ccc(-c4ccc(C(=O)NCC5CC5)s4)nc23)N1 |  | < 100 nM |  | IC50 [3]: 0.58 µM |
| COC(=O)c1cccc(-c2ccn3ncc(/C=C4/SC(=O)NC4=O)c3n2)c1 | 91 nM | 80 nM | > 30000 nM | IC50 [5]: > 10000 nM; IC50 [6]: 5680 nM; IC50 [7]: 51 nM; IC50 [8]: 3160 nM; IC50 [9]: > 10000 nM |
| CC(C)Oc1cccc(Nc2ccn3ncc(/C=C4\NC(=O)NC4=O)c3n2)c1 | 1040 nM | 23 nM | 9710 nM |  |
| CN(C)CCOc1ccc(Nc2ccn3ncc(/C=C4\NC(=O)NC4=O)c3n2)cc1 | 431 nM | 58 nM |  |  |
| Nc1ccn2ncc(/C=C3\NC(=O)NC3=O)c2n1 | 158 nM | > 5000 nM |  |  |
| CC(C)CNc1ccn2ncc(/C=C3\NC(=O)NC3=O)c2n1 | 346 nM | 35 nM | 6550 nM |  |
| CC(C)(C)c1cccc(Nc2ccn3ncc(/C=C4/SC(=O)NC4=O)c3n2)c1 | 107 nM | 79 nM |  |  |
| CC(O)CNC(=O)c1ccc(-c2ccn3ncc(/C=C4\NC(=O)NC4=O)c3n2)s1 (stereo not drawn) |  | < 100 nM |  | IC50 [3]: 0.54 µM |
| O=C1NC(=O)/C(=C\c2cnn3ccc(-c4cccc(C(=O)O)c4)nc23)S1 | 688 nM | 9 nM | > 30000 nM | IC50 [5]: > 10000 nM; IC50 [7]: > 10000 nM; IC50 [9]: > 10000 nM; IC50 [10]: > 1000 nM |
| O=C1NC(=O)/C(=C/c2cnn3ccc(Nc4ccc(Cl)cc4)nc23)S1 |  | 7 nM |  |  |
| O=C1NC(=O)/C(=C/c2cnn3ccc(N4CCCCC4)nc23)N1 | 431 nM | 145 nM |  |  |
| O=C1NC(=S)S/C1=C\c1cnn2ccc(-c3ccccc3F)nc12 | 25 nM | 15 nM | > 10000 nM |  |

| SMILES | IC50 [1] | IC50 [2] | IC50 [4] | also measured |
| --- | --- | --- | --- | --- |
| O=C1NC(=S)S/C1=C/c1cnn2ccc(Nc3cccc(Cl)c3)nc12 | 18 nM | 6 nM | 842 nM | IC50 [5]: > 10000 nM; IC50 [6]: 2660 nM; IC50 [7]: 153 nM; IC50 [8]: 300 nM; IC50 [9]: > 10000 nM; IC50 [10]: > 30 nM |
| CC(C)Nc1ccn2ncc(/C=C3\NC(=O)NC3=O)c2n1 | 1570 nM | 574 nM |  |  |
| CN1CCCN(c2ccn3ncc(/C=C4\SC(=O)NC4=O)c3n2)CC1 | 126 nM | 130 nM |  |  |
| O=C1NC(=O)/C(=C\c2cnn3ccc(Nc4cccc(Cn5ccnc5)c4)nc23)N1 | 61 nM | 120 nM |  |  |
| COC(=O)c1cccc(-c2ccn3ncc(/C=C4/SC(=S)NC4=O)c3n2)c1 | 21 nM | 13 nM | 3910 nM | IC50 [5]: 8660 nM; IC50 [7]: > 10000 nM; IC50 [9]: > 10000 nM; IC50 [10]: 11 nM |
| O=C1NC(=O)/C(=C/c2cnn3ccc(Nc4ccc(Cl)cc4)nc23)N1 | 194 nM | 20 nM |  |  |
| CCOCCNC(=O)c1ccc(-c2ccn3ncc(/C=C4\NC(=O)NC4=O)c3n2)s1 |  | < 100 nM |  | IC50 [3]: 1.06 µM |
| O=C1NC(=O)/C(=C\c2cnn3ccc(Nc4cccc(Cl)c4)nc23)N1 | 427 nM | 9 nM | 143 nM | IC50 [5]: 768 nM; IC50 [6]: 540 nM; IC50 [7]: 153 nM; IC50 [8]: 100 nM; IC50 [9]: 108 nM; IC50 [10]: > 30 nM |
| O=C1NC(=O)/C(=C/c2cnn3ccc(-c4ccccc4F)nc23)N1 | 3010 nM | 179 nM |  |  |
| CC(C)(C)c1cccc(Nc2ccn3ncc(/C=C4/NC(=O)NC4=O)c3n2)c1 | 890 nM | 210 nM |  |  |
| O=C1NC(=O)/C(=C\c2cnn3ccc(Nc4cccc(Cl)c4)nc23)S1 | 52 nM | 3 nM | 3040 nM | IC50 [5]: 110 nM; IC50 [6]: 450 nM; IC50 [7]: 132 nM; IC50 [8]: 680 nM; IC50 [9]: 285 nM; IC50 [10]: 271 nM |
| CN1CCN(c2ccc(Nc3ccn4ncc(/C=C5/NC(=O)NC5=O)c4n3)cc2)CC1 | 537 nM | 57 nM |  |  |
| O=C1NC(=O)/C(=C/c2cnn3ccc(-c4ccccc4F)nc23)S1 | 240 nM | 41 nM | > 10000 nM |  |
| Cc1nccn1-c1cccc(Nc2ccn3ncc(/C=C4\SC(=O)NC4=O)c3n2)c1 | 4 nM | 22 nM |  | IC50 [5]: > 10000 nM; IC50 [7]: > 10000 nM; IC50 [9]: > 10000 nM; IC50 [10]: 5380 nM |
| CCN(CC)Cc1cccc(Nc2ccn3ncc(/C=C4\NC(=O)NC4=O)c3n2)c1 | 373 nM | 460 nM |  |  |
| O=C1NC(=O)/C(=C/c2cnn3ccc(Nc4cccc(OCCN5CCOCC5)c4)nc23)N1 | 1250 nM | 303 nM |  |  |
